One may read the IC50 as the concentration at which inhibition is half-maximal.

Where a SMILES comes first, the peptide text is derived from it. [ ]: non-standard residue; d: D form. The star is where a group is joined. Furoyl(5-pyrazol-1-ylmethyl) = O=C(c1ccc(Cn2cccn2)o1)*; Phe(4-F) = N[C@@H](Cc1ccc(F)cc1)C(=O)O; Picolinoyl(6-Me) = Cc1cccc(C(=O)*)n1; X13 = CN1CCN(Cc2ccc(C(=O)*)o2)CC1; X1 = Cc1cnn(Cc2ccc(C(=O)*)o2)c1; X11 = CCN(CC)Cc1ccc(C(=O)*)o1; X12 = O=C(c1csc(-c2cccs2)n1)*; X14 = O=C(c1csc(-c2ccsc2)n1)*; X15 = CCOc1ccc(CC(=O)*)cc1OCC; X7 = CC(C)COc1ccc(CC(=O)*)cc1; X4 = O=C(c1ccc(Cn2ccnc2)o1)*; Picolinoyl = O=C(c1ccccn1)*; X16 = CCOc1ccc(CC(=O)*)cc1; X9 = CCCOc1ccc(CC(=O)*)cc1; X10 = CCOc1cccc(C(=O)*)n1; X8 = COc1cccc(C(=O)*)n1

The target in experiment [1] is Cyclin-dependent kinase 4/cyclin D1 (Homo sapiens, UniProt P24385). Put plainly: Inhibition of human recombinant CDK4/cyclin D1 using fluoresceinyl-Ahx-Pro-Val-Lys-Arg-Arg-Leu-(3ClPhe)-Gly as substrate after 45 mins by fluorescence polarization assay. The experiment is classed as protein-complex assay.
Cyclin-dependent kinase 4/cyclin D1, sequence (P11802 whole entry): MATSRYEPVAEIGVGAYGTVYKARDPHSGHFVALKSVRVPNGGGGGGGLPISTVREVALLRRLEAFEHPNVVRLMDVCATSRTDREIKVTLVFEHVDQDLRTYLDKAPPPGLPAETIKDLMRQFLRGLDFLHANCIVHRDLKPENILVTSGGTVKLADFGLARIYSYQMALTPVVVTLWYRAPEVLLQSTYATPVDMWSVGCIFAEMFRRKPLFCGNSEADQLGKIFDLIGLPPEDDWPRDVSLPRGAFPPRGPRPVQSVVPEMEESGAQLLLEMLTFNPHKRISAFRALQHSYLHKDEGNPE
Cyclin-dependent kinase 4/cyclin D1, sequence (P24385 whole entry): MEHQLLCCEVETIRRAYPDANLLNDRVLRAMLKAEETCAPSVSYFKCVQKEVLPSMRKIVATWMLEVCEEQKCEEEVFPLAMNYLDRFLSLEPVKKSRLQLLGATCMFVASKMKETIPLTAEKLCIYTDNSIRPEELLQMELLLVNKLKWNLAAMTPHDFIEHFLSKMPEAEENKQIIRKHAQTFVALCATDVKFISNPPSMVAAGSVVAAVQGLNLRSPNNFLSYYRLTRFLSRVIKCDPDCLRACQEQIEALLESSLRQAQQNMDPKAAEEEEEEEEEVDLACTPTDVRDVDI
In experiment [2] the target is CDK2/Cyclin A2 (Homo sapiens, UniProt P24941). Put plainly: Inhibition of human recombinant CDK2/cyclin A using fluoresceinyl-Ahx-Pro-Val-Lys-Arg-Arg-Leu-Phe-Gly as substrate after 45 mins by fluorescence polarization assay. The experiment is classed as protein-complex assay. On the technique in general: Polarisation of emitted light reports the rotation of a fluorescent probe.

On to `CC(C)C[C@H](NC(=O)[C@H](CCCN=C(N)N)NC(=O)c1ccccn1)C(=O)N[C@@H](CC(N)=O)C(=O)N[C@@H](Cc1ccc(F)cc1)C(=O)O` (Picolinoyl-RLN[Phe(4-F)]-OH), for which the IC50 worked out at 48.4 µM in experiment [1] and 29.2 µM in experiment [2].

Take `CC[C@H](C)[C@H](NC(=O)[C@H](CC(C)C)NC(=O)[C@H](CCCN=C(N)N)NC(=O)c1ccc(Cn2cc(C)cn2)o1)C(=O)N[C@@H](Cc1ccccc1)C(=O)O` (X1-RLIF-OH): the figures for the IC50 in experiment [1] and in experiment [2] were over 180 µM and over 100 µM, respectively.

Regarding `CC[C@H](C)[C@H](NC(=O)[C@H](CC(C)C)NC(=O)[C@H](CCCN=C(N)N)NC(=O)c1ccc(Cn2ccnc2)o1)C(=O)N[C@@H](Cc1ccccc1)C(=O)O` (X4-RLIF-OH), the IC50 is 159 µM in experiment [1] and over 100 µM in experiment [2].

As for `CC(C)COc1ccc(CC(=O)N[C@@H](CCCNC(=N)N)C(=O)N[C@@H](CC(C)C)C(=O)N[C@@H](CC(N)=O)C(=O)N[C@@H](Cc2ccc(F)cc2)C(=O)O)cc1` (X7-RLN[Phe(4-F)]-OH), the IC50 in experiment [1] and in experiment [2] was over 100 µM in each case.

Take `COc1cccc(C(=O)N[C@@H](CCCN=C(N)N)C(=O)N[C@@H](CC(C)C)C(=O)N[C@@H](CC(N)=O)C(=O)N[C@@H](Cc2ccc(F)cc2)C(=O)O)n1` (X8-RLN[Phe(4-F)]-OH): the values for the IC50 in experiment [1] and in experiment [2] were 36.9 µM and 36.4 µM, respectively.

For `CCCOc1ccc(CC(=O)N[C@@H](CCCN=C(N)N)C(=O)N[C@@H](CC(C)C)C(=O)N[C@@H](CC(N)=O)C(=O)N[C@@H](Cc2ccc(F)cc2)C(=O)O)cc1` (X9-RLN[Phe(4-F)]-OH), the values for the IC50 in experiment [1] and in experiment [2] were over 50 µM and over 100 µM, respectively.

For `CCOc1cccc(C(=O)N[C@@H](CCCNC(=N)N)C(=O)N[C@@H](CC(C)C)C(=O)N[C@@H](CC(N)=O)C(=O)N[C@@H](Cc2ccc(F)cc2)C(=O)O)n1` (X10-RLN[Phe(4-F)]-OH), the IC50 in experiment [1] was over 100 µM; in experiment [2], 39.7 µM.

Take `CC[C@H](C)[C@H](NC(=O)[C@H](CC(C)C)NC(=O)[C@H](CCCNC(=N)N)NC(=O)c1ccc(CN(CC)CC)o1)C(=O)N[C@@H](Cc1ccccc1)C(=O)O` (X11-RLIF-OH): the figures for the IC50 in experiment [1] and in experiment [2] were 41.9 µM and 43.5 µM, respectively.

Turning to `CC[C@H](C)[C@H](NC(=O)[C@H](CC(C)C)NC(=O)[C@H](CCCNC(=N)N)NC(=O)c1csc(-c2cccs2)n1)C(=O)N[C@@H](Cc1ccccc1)C(=O)O` (X12-RLIF-OH), the IC50 in experiment [1] and in experiment [2] was over 180 µM throughout.

As to `CC[C@H](C)[C@H](NC(=O)[C@H](CC(C)C)NC(=O)[C@H](CCCNC(=N)N)NC(=O)c1ccc(CN2CCN(C)CC2)o1)C(=O)N[C@@H](Cc1ccccc1)C(=O)O` (X13-RLIF-OH), the IC50 in experiment [1] was 43.2 µM; in experiment [2], 50.3 µM.

On to `CC[C@H](C)[C@H](NC(=O)[C@H](CC(C)C)NC(=O)[C@H](CCCN=C(N)N)NC(=O)c1csc(-c2ccsc2)n1)C(=O)N[C@@H](Cc1ccccc1)C(=O)O` (X14-RLIF-OH), for which the IC50 was over 180 µM in experiment [1] and 56.2 µM in experiment [2].

`CCOc1ccc(CC(=O)N[C@@H](CCCNC(=N)N)C(=O)N[C@@H](CC(C)C)C(=O)N[C@@H](CC(N)=O)C(=O)N[C@@H](Cc2ccc(F)cc2)C(=O)O)cc1OCC` (X15-RLN[Phe(4-F)]-OH): the results for the IC50 in experiment [1] and in experiment [2] were 3 µM and 5.2 µM, respectively.

As for `CCOc1ccc(CC(=O)N[C@@H](CCCN=C(N)N)C(=O)N[C@@H](CC(C)C)C(=O)N[C@@H](CC(N)=O)C(=O)N[C@@H](Cc2ccc(F)cc2)C(=O)O)cc1` (X16-RLN[Phe(4-F)]-OH), the IC50 in experiment [1] and in experiment [2] was over 100 µM in each case.

As to `CC[C@H](C)[C@H](NC(=O)[C@H](CC(C)C)NC(=O)[C@H](CCCN=C(N)N)NC(=O)c1ccc(Cn2cccn2)o1)C(=O)N[C@@H](Cc1ccccc1)C(=O)O` ({Furoyl(5-pyrazol-1-ylmethyl)}-RLIF-OH), the IC50 in experiment [1] and in experiment [2] was over 100 µM throughout.

For the compound `CC[C@H](C)[C@H](NC(=O)[C@H](CC(C)C)NC(=O)[C@H](CCCNC(=N)N)NC(=O)c1cccc(C)n1)C(=O)N[C@@H](Cc1ccccc1)C(=O)O` ({Picolinoyl(6-Me)}-RLIF-OH), the IC50 in experiment [1] was 85.7 µM; in experiment [2], over 100 µM.
